According to ChEMBL document CHEMBL4145608, “Dehydrodiconiferyl Alcohol Inhibits Osteoclast Differentiation and Ovariectomy-Induced Bone Loss through Acting as an Estrogen Receptor Agonist” (J Nat Prod, 2018):
Activity calls are given as the source filed them. The calls are words filed in the database; no cut-off is given here.

How the values were obtained:
[1] = system: RAW264.7; experiment: Inhibition of NF-kappaB signaling pathway in mouse RAW264.7 cells assessed as reduction in RANKL-induced IKKbeta phosphorylation at 10 to 40 uM after 30 mins by Western blot method; type: cell-based
[2] = system: RAW264.7; experiment: Inhibition of RANKL-induced osteoclast differentiation in mouse RAW264.7 cells assessed as decrease in size of TRAP-positive multinucleated cells after 5 days by microscopy; type: functional, cell-based
[3] = system: RAW264.7; experiment: Cytotoxicity against mouse RANKL-treated RAW264.7 cells assessed as reduction in cell viability at 10 to 40 uM after 72 hrs by MTT assay; type: cell-based; details: raw264.7, 72 h
[4] = system: RAW264.7; experiment: Inhibition of NF-kappaB/p38 MAPK signaling pathway in mouse RAW264.7 cells assessed as reduction in RANKL-induced c-Fos mRNA level after 24 hrs by qRT-PCR method; type: cell-based
[5] = system: RAW264.7; experiment: Inhibition of NF-kappaB/p38 MAPK signaling pathway in mouse RAW264.7 cells assessed as reduction in RANKL-induced cathepsin K mRNA level after 24 hrs by qRT-PCR method; type: cell-based
[6] = system: RAW264.7; experiment: Inhibition of NF-kappaB/p38 MAPK signaling pathway in mouse RAW264.7 cells assessed as reduction in RANKL-induced NFATc1 nuclear translocation after 24 hrs by Western blot method; type: cell-based
[7] = system: RAW264.7; experiment: Inhibition of RANKL-induced osteoclast differentiation in mouse RAW264.7 cells harboring AMPKalpha1 siRNA assessed as decrease in size of TRAP-positive multinucleated cells after 5 days by microscopy; type: functional, cell-based
[8] = system: RAW264.7; experiment: Inhibition of RANKL-induced osteoclast differentiation in mouse RAW264.7 cells harboring AMPKalpha1 siRNA assessed as decrease in TRAP activity at 10 to 40 uM after 5 days by microscopy; type: functional, cell-based
[9] = system: RAW264.7; experiment: Inhibition of RANKL-induced osteoclast differentiation in mouse RAW264.7 cells harboring AMPKalpha1 siRNA assessed as decrease in NFATc1 mRNA level at 20 uM after 24 hrs by qRT-PCR method; type: functional, cell-based
[10] = system: RAW264.7; experiment: Inhibition of RANKL-induced osteoclast differentiation in mouse RAW264.7 cells assessed as decrease in size of TRAP-positive multinucleated cells at 20 uM after 5 days in presence of ERalpha antagonist MPP by microscopy; type: functional, cell-based
[11] = system: RAW264.7; experiment: Inhibition of RANKL-induced osteoclast differentiation in mouse RAW264.7 cells assessed as decrease in NFATc1 mRNA level at 20 uM after 24 hrs in presence of ERbeta antagonist PHTPP by qRT-PCR method; type: functional, cell-based
[12] = system: Mus musculus; experiment: Anti-osteoporotic activity in Balb/c mouse assessed as inhibition of OVX-mediated decrease in bone marrow density in femur at 25 to 100 mg/kg, ip administered for 4 weeks daily by microcomputed tomography; type: functional, organism-based
[13] = system: Mus musculus; experiment: Anti-osteoporotic activity in Balb/c mouse assessed as inhibition of OVX-induced serum CTx level at 25 to 100 mg/kg, ip administered for 4 weeks daily by ELISA; type: functional, organism-based
[14] = system: Mus musculus; experiment: Anti-osteoporotic activity in Balb/c mouse assessed as inhibition of OVX-induced cathepsin K mRNA expression level in bone marrow at 25 to 100 mg/kg, ip administered for 4 weeks daily by qRT-PCR method; type: functional, organism-based

COc1cc(C2Oc3c(OC)cc(/C=C/CO)cc3C2CO)ccc1O (centres undefined)
inhibition [1]: Active
inhibition [2]: Dose-dependent effect
Activity [3]: Non-Toxic
inhibition [4]: Dose-dependent effect
inhibition [5]: Dose-dependent effect
inhibition [6]: Dose-dependent effect
inhibition [7]: inactive
inhibition [8]: inactive
inhibition [9]: inactive
inhibition [10]: inactive
inhibition [11]: Active
inhibition [12]: Active
inhibition [13]: Active
inhibition [14]: Active
